Source: US12286428B2 (BRISTOL-MYERS SQUIBB COMPANY, priority 2019, dated 2025)

Experiments:
[1] = tested on: Human whole blood, IL-6 levels after TLR2 agonist lipoteichoic acid; test: IRAK4 Whole Blood Assay; format: cell-based; settings: compounds 60 minutes at 37° C., lipoteichoic acid 10 μg/mL for 5 hours
Procedure: IRAK4 Whole Blood Assay Human whole blood containing the anti-coagulant ACD-A was plated in 384-well plate (25 μL/well) and incubated with compounds for 60 minutes at 37° C. in a 5% CO2 incubator. The blood was stimulated with a TLR2 agonist, 10 μg/mL final concentration of lipoteichoic acid (Invivogen, San Diego, CA) in 25 μL RPMI (Gibco) for 5 hours in a 5% CO2 incubator. At the end of the incubation, plates were centrifuged at 2300 rpm for 5 minutes. Supernatants were harvested and analyzed for IL-6 levels by Flow Cytometry beads assay (BD Biosciences, San Jose, CA).

IRAK4 = molecular target: T1, IRAK4 (Homo sapiens, UniProt Q9NWZ3); test: IRAK4 Inhibition Assay; format: biochemical; settings: ATP 500 μM; FL-IPTSPITTTYFFFKKK peptide […]; IRAK4 0.6 nM; 60 min room temperature; Caliper LABCHIP 3000
T1 sequence (Q9NWZ3 1-460): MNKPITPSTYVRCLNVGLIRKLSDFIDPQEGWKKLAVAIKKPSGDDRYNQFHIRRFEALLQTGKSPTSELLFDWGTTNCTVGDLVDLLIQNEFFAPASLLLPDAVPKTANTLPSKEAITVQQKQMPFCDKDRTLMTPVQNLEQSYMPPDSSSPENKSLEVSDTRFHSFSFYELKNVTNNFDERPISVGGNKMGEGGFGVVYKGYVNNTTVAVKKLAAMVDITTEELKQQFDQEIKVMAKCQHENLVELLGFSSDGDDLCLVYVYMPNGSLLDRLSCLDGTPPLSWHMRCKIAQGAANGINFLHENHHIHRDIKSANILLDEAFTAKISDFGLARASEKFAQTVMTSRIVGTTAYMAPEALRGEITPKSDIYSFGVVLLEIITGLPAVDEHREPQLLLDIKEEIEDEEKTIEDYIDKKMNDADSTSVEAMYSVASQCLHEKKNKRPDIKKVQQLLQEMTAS
Procedure: The assays were performed in U-bottom 384-well plates. […] The reaction was initiated by the combination of IRAK4 with substrates and test compounds. The reaction mixture was incubated at room temperature for 60 min. and terminated by adding 45 μL of 35 mM EDTA to each sample. The reaction mixture was analyzed on the Caliper LABCHIP® 3000 (Caliper, Hopkinton, MA) by electrophoretic separation of the fluorescent substrate and phosphorylated product. […] The final concentrations of reagents in the assays are ATP, 500 μM; FL-[…] peptide 1.5 μM; IRAK4, 0.6 nM; and DMSO, 1.6%.

SMILES	IC50 [1] [nM]	IC50 (IRAK4) [nM]
CC[C@@H]1CC(=O)N[C@@H]1COC1=CC(F)=CC2C=C(C(N)=O)c3nccn3C12 (stereo partly drawn) [Example 57, 9-(((2S,3R)-3-ethyl-5-oxopyrrolidin-2-yl)methoxy)-7-fluoro-5a,9a-dihydroimidazo[1,2-a]quinoline-4-carboxamide]	1460	9.7
CC[C@H]1CC(=O)N[C@@H]1COc1cccc2cc(C(N)=O)c3nccn3c12 [Example 3, 9-(((2S,3S)-3-ethyl-5-oxopyrrolidin-2-yl)methoxy)imidazo[1,2-a]quinoline-4-carboxamide]	152	1.7
CC[C@@H]1CC(=O)N[C@@H]1COc1ccc(F)c2cc(C(N)=O)c3nccn3c12 [Example 14, 9-(((2S,3R)-3-ethyl-5-oxopyrrolidin-2-yl)methoxy)-6-fluoroimidazo[1,2-a]quinoline-4-carboxamide]	557	1
